# Data from patent US4925848A, “Derivative of codeine useful as an agonist and process for the preparation of it” (Reckitt & Colman Products Limited, priority 1987, dated 1990).
# “Also recorded” adds a separate entry of the source.
# Assays:
# [1] = system: rat tail pressure antinociception; test: Rat tail pressure (RTP) antinociceptive test; assay type: in vivo; conditions: for agonist activity in the RPT test: in words
# Excerpt: Compounds of formula III were initially examined in two antinociceptive tests (in vivo) to assess their analgesic potential and are shown in the following Table 1. These tests were:
# (2) The rat tail pressure (RTP) which is described by Green and Young, (Br. J. Pharmac Chemother., 6,572, 1951).
# opioid receptor subtypes = test: Mouse vas deferens preparation (MVD), agonist/antagonist profile at opioid receptor subtypes; assay type: cell-based; conditions: for rank order of affinities: antagonists
# Excerpt: (§1) To obtain some insight into the profiles at opioid receptor subtypes compounds of formula III where R=H, Cl, Br and Me were therefore examined in isolated tissue preparations. Comparative data on the previously disclosed dehydro compounds of formula III is also included. The results obtained in the mouse was deferens preparation (MVD)(Henderson et al Brit J Pharmacol., 46,764, 1972) for these compounds are shown in Table 2. Although the unsubstituted compounds (R=H) were full agonists in this test situation no delta-agonist properties could be detected. […] The corresponding methyl and bromo dihydro compounds were antagonists with the rank order of affinities: mu>delta>kappa.
# (§2) ke = Molar concentration of antagonist at which twice the concentration o
# (§3) the agonist was required to produce the same response as that produced in
# (§4) the absence of the antagonist; μ Agonist = Normorphine (NM); kAgonist
# (§5) Ethylketocyclazocine; dAgonist = DAla-D-Leu Enkephalin.
# mu opioid receptor = target: T1, mu opioid receptor (Mus musculus, UniProt P42866); test: Mouse vas deferens preparation (MVD), mu receptor (normorphine); assay type: cell-based; conditions: in vitro MVD; for Kb: antagonist of normorphine, read-out: ke, μ
# T1 construct: mu agonist normorphine
# T1 sequence (P42866 whole entry): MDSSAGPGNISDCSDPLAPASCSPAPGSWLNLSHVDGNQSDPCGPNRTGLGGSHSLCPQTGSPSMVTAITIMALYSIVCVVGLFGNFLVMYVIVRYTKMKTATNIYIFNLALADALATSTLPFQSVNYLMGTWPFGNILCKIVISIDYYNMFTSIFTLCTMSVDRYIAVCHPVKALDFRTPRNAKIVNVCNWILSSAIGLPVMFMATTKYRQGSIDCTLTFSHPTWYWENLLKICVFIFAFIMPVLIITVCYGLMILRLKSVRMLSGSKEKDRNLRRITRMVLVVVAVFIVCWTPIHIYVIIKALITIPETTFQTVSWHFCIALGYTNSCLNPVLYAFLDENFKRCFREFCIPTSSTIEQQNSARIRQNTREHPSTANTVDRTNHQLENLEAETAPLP
# Excerpt: as §1, §2, §3, §4, §5
# delta opioid receptor = target: T2, delta opioid receptor (Mus musculus, UniProt P32300); test: Mouse vas deferens preparation (MVD), delta receptor (DAla-D-Leu enkephalin); assay type: cell-based; conditions: for Kb: antagonist of DAla-D-Leu enkephalin, read-out: ke, d
# T2 construct: delta agonist DAla-D-Leu enkephalin
# T2 sequence (P32300 whole entry): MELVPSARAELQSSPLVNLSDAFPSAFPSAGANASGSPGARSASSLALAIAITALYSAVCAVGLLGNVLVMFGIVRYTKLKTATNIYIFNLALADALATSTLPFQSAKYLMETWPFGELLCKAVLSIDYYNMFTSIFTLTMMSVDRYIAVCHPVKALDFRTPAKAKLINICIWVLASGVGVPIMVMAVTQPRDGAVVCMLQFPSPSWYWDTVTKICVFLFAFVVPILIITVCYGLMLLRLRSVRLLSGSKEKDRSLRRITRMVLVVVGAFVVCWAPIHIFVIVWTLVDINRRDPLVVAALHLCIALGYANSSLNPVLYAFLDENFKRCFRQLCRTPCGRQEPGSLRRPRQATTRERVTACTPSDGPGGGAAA
# Excerpt: as §1, §2, §3, §4, §5
# [2] = system: morphine antagonist activity; conditions: s.c., reported in a response filed during prosecution of the corresponding U.S. application; cited from earlier work
# kappa opioid receptor = test: Mouse vas deferens preparation (MVD), kappa receptor (ethylketocyclazocine); assay type: cell-based; conditions: in vitro MVD; antagonist of ethylketocyclazocine; read-out: ke, k
# Excerpt: as §1, §2, §3, §4, §5
# kappa and mu receptors = test: DMPP stimulated guinea pig ileum (GPI) preparation (kappa and mu test); assay type: cell-based; conditions: in words
# Excerpt: *In the guinea pig ileum preparation (GPI), as described on page 268 of […]
# [3] = system: drug reinforcing effects in rhesus monkeys; test: Self-administration study in codeine-trained rhesus monkeys (drug reinforcing effects); assay type: in vivo, rhesus monkey; conditions: for response rates maintained compared with codeine: similar conditions, FIGS. 2 and 3
# Description: Drug reinforcing effects were evaluated in rhesus monkeys trained to respond for 0.32 mg/kg/iv injection of codeine.
# delta receptor = target: T3, delta receptor (Mus musculus, UniProt P32300); test: MVD agonist effects of compound I in absence/presence of RX 8008M or naltrexone; assay type: cell-based
# T3 construct: agonism of compound I with delta-selective antagonist RX or mu-selective naltrexone
# T3 sequence (P32300 whole entry): as above
# Excerpt: ^a Groups (n = 2-6) of MVD used in each treatment schedule.
# ^b IC40 is the concentration of agonist required to reduce the
# maximal contraction to electrical stimulation by 40 percent. The slow
# values in the presence or absence of the antagonists in the same
# mu receptor = test: GPI preparation, mu receptor agonism; assay type: cell-based, guinea pig; conditions: in words
# kappa receptor = kappa receptor (Cavia porcellus, UniProt P41144); test: GPI preparation, kappa receptor agonism; assay type: cell-based, guinea pig; conditions: in words
# kappa receptor, sequence (P41144 whole entry): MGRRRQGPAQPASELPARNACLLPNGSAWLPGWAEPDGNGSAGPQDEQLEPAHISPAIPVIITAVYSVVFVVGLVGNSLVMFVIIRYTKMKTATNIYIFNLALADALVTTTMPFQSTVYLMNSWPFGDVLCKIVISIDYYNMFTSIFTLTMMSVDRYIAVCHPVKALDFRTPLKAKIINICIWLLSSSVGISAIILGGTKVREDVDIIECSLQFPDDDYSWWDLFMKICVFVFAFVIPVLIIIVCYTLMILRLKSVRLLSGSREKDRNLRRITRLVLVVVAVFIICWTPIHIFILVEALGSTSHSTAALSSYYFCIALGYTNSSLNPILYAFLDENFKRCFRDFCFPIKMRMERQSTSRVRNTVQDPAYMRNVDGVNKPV
smiles,measurement,setting,value
COc1ccc(C=CC(=O)N[C@@]23CCC(=O)[C@@H]4Oc5c(OC)ccc6c5[C@@]42CCN(CC2CC2)[C@@H]3C6)cc1 [OMe dihydro],"RTP, percent effect","[1]; at 1 mg/kg, Table 1",40%
COc1ccc2c3c1O[C@H]1C(=O)CC[C@@]4(NC(=O)C=Cc5ccccc5)[C@@H](C2)N(CC2CC2)CC[C@]314 [H dihydro],MVD activity profile,"opioid receptor subtypes; in vitro MVD, in words",μ Agonist
same,agonist potency relative to normorphine (× NM),mu opioid receptor,"72,000 × NM"
same,delta agonism in MVD,"delta opioid receptor; in vitro MVD, in words",No d-agonism detected
O=CN[C@@]12C=CC(=O)[C@@H]3Oc4c(O)ccc5c4[C@@]31CCN(CC1CC1)[C@@H]2C5 [Example 49],agonist activity in the RPT test,[1],neither the dehydro compound (Example 49) nor the dihydro compound (Example 108) exhibited agonist activity
same,AD50 (RTF test),[2],0.132 mg/kg
O=CN[C@@]12CCC(=O)[C@@H]3Oc4c(O)ccc5c4[C@@]31CCN(CC1CC1)[C@@H]2C5 [Example 108],agonist activity in the RPT test,[1],neither the dehydro compound (Example 49) nor the dihydro compound (Example 108) exhibited agonist activity
same,AD50 (RTF test),[2],0.16 mg/kg
COc1ccc2c3c1O[C@H]1C(=O)CC[C@@]4(NC(=O)C=Cc5ccc(Br)cc5)[C@@H](C2)N(CC2CC2)CC[C@]314 [Br dihydro],rank order of affinities,opioid receptor subtypes; in vitro MVD,mu>delta>kappa
same,MVD activity profile,"opioid receptor subtypes; in vitro MVD, in words",antagonists
same,agonist activity in MVD,opioid receptor subtypes; in words,negligible agonist activity
same,Kb,mu opioid receptor,0.00032 µM
same,Kb,kappa opioid receptor,0.0273 µM
same,Kb,delta opioid receptor; in vitro MVD,0.0086 µM
same,GPI dose-response curve / agonist activity,kappa and mu receptors,negligible agonist activity
same,response rates maintained compared with codeine,[3],appropriately equal to the level of responding maintained by codeine
COc1ccc2c3c1O[C@H]1C(=O)C=C[C@@]4(NC(=O)C=Cc5ccccc5)[C@@H](C2)N(CC2CC2)CC[C@]314 [Ex. 15],MVD activity profile,"opioid receptor subtypes; in vitro MVD, in words",μ and k-Agonist
same,agonist potency relative to normorphine (× NM),mu opioid receptor,200 × NM
COc1ccc2c3c1O[C@H]1C(=O)C=C[C@@]4(NC(=O)C=Cc5ccc(C)cc5)[C@@H](C2)N(CC2CC2)CC[C@]314 [Ex. 92],MVD activity profile,"opioid receptor subtypes; in vitro MVD, in words",Partial μ Agonist
"COc1ccc2c3c1O[C@H]1C(=O)CC[C@@]4(NC(=O)C=Cc5ccc(Cl)cc5)[C@@H](C2)N(CC2CC2)CC[C@]314 [I, 14-β-p-chlorocinnamoylamino-7,8-dihydro-N-cyclopropylmethyl-norcodeinone]",EC40,"delta opioid receptor; in vitro MVD, Table 2, read-out: ED40 (d-agonism)",3.1 ng/mL
same,delta agonism in MVD,"delta opioid receptor; in vitro MVD, in words",delta-agonist activity; also recorded: d-Agonist
same,"intrinsic activity at delta-receptors, in vitro summary",delta opioid receptor; in words,substantial level of intrinsic activity at delta-receptors
same,IC40,delta receptor,0.098 ng/mL
same,IC40 in presence of RX 8008M,"delta receptor; MVD, + RX 8008M (10 ng/ml)",9.15 + 3.4 ng/ml
same,IC40 in presence of naltrexone,"delta receptor; MVD, + naltrexone (100 ng/ml)",1.44 + 0.01 ng/ml
same,GPI dose-response curve / agonist activity,kappa and mu receptors,very shallow dose-response curve
same,antagonism of GPI response by RX 8008M,kappa and mu receptors; RX 8008M (25 nM),atagonised by RX 8008M (25 nM)
same,mu agonist activity in GPI,mu receptor; DMPP stimulated GPI,low intrinsic activity mu agonist
same,"intrinsic activity at mu receptors, in vitro summary",mu receptor,low intrinsic acitivity at mu receptors
same,response rates maintained compared with saline,"[3]; 0.0003-0.01 mg/kg, i.v., substituted for codeine, single 130 minute sessions, FIG. 1",identical to those maintained by saline
COc1ccc2c3c1O[C@H]1C(=O)CC[C@@]4(NC(=O)C=Cc5ccc(C)cc5)[C@@H](C2)N(CC2CC2)CC[C@]314 [Me dihydro],rank order of affinities,opioid receptor subtypes; in vitro MVD,mu>delta>kappa
same,MVD activity profile,"opioid receptor subtypes; in vitro MVD, in words",antagonists
same,Kb,mu opioid receptor,0.00028 µM
same,Kb,kappa opioid receptor,0.0663 µM
same,Kb,delta opioid receptor; in vitro MVD,0.0193 µM
same,kappa agonist activity in GPI,kappa receptor,predominantly kappa partial agonist activity
same,response rates maintained compared with codeine,[3],appropriately equal to the level of responding maintained by codeine
COc1ccc2c3c1O[C@H]1C(=O)C=C[C@@]4(NC(=O)C=Cc5ccc(Cl)cc5)[C@@H](C2)N(CC2CC2)CC[C@]314 [Ex. 91],EC40,"opioid receptor subtypes; Mus musculus, in vitro MVD, Table 2, read-out: ED40 (μ + k-agonism)",> 300 ng/mL
same,MVD activity profile,"opioid receptor subtypes; in vitro MVD, in words",Weak μ + k-Agonist
same,delta agonism in MVD,"delta opioid receptor; in vitro MVD, in words",No d-agonism detected
